Data: patent publication US11802120B2, “Fused cyclic urea derivatives as CRHR2 antagonist” (RaQualia Pharma Inc., priority 2018, dated 2023)

biological target: T1, human CRHR2-alpha (Homo sapiens, UniProt Q13324); assay: cAMP functional assay for human CRHR2 (LANCE Ultra cAMP, TR-FRET); type: cell-based; details: CHO-K1 cells expressing human CRHR2-alpha, agonist human urocortin2 at EC80, cAMP; read-out: IC50 against CRHR2
T1 sequence (Q13324 1-411): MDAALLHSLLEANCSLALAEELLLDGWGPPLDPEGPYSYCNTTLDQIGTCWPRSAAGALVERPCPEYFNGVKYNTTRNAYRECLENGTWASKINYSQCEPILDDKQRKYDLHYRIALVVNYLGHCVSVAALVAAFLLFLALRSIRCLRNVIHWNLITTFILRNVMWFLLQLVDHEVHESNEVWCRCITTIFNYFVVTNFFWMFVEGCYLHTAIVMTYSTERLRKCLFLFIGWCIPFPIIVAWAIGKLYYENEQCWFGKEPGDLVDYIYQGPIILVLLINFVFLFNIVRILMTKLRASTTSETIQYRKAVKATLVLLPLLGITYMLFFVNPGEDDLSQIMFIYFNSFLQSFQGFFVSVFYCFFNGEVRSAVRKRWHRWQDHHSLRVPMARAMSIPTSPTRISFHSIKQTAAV
Procedure, shortened: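 CHO-K1 cells stably expressing each receptor, serum-starved and cryopreserved, were preincubated with compound 30 min at 25° C in HBSS buffer with 0.5 mM IBMX, pH 7.4, then stimulated 30 min with EC80 agonist (urocortin2 for CRHR2, CRF for CRHR1). cAMP read by TR-FRET; IC50 from percent-inhibition curves.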

Row | IC50 [nM] | Compound
1 | < 300 | Cc1ccc(C(F)(F)F)c(C(=O)N[C@H]2CC[C@H](Cn3c(=O)n(-c4ccc(C)nc4)c4ccccc43)CC2)c1 [Example 268, 5-methyl-N-((1r,4r)-4-((3-(6-methylpyridin-3-yl)-2-oxo-2,3-dihydro-1H-benzo[d]imidazol-1-yl)methyl)cyclohexyl)-2-(trifluoromethyl)benzamide]
2 | < 300 | O=C(N[C@H]1CC[C@H](Cn2c(=O)n(-c3cnc4ccccc4c3)c3ccccc32)CC1)c1cc(Cl)cnc1C(F)(F)F [Example 352, 5-chloro-N-((1r,4r)-4-((2-oxo-3-(quinolin-3-yl)-2,3-dihydro-1H-benzo[d]imidazol-1-yl)methyl)cyclo-hexyl)-2-(trifluoromethyl) nicotinamide]
3 | < 300 | Cc1ncc(Cl)cc1C(=O)N[C@H]1CC[C@H](Cn2c(=O)n(-c3ccc4nc(C)n(C)c4c3)c3ccccc32)CC1 [Example 209, 5-chloro-N-((1r,4r)-4-((2′,3′-dimethyl-2-oxo-3′H-[1,5′-bibenzo[d]imidazol]-3(2H)-yl)methyl)cyclohexyl)-2-methylnicotinamide]
4 | < 300 | Cc1ncc(Cl)cc1C(=O)N[C@H]1CC[C@H](Cn2c(=O)n(-c3cccc4c3CCC4)c3ccncc32)CC1 [Example 238, 5-chloro-N-((1r,4r)-4-((1-(2,3-dihydro-1H-inden-4-yl)-2-oxo-1H-imidazo[4,5-c]pyridin-3(2H)-yl)methyl)cyclohexyl)-2-methylnicotinamide]
5 | < 300 | O=C(N[C@H]1CC[C@H](Cn2c(=O)n(-c3ccc(NC(=O)C4CC4)nc3)c3ccccc32)CC1)c1cc(Cl)cnc1C(F)F [Example 502, 5-chloro-N-((1r,4r)-4-((3-(6-(cyclopropanecarboxa-mido)pyridin-3-yl)-2-oxo-2,3-dihydro-1H-benzo[d]imidazol-1-yl)methyl)cyclohexyl)-2-(difluoro-methyl)nicotinamide]
6 | < 300 | CNC(=O)c1ccc(-n2c(=O)n(C[C@H]3CC[C@H](NC(=O)c4c5ccccc5nn4CC(F)(F)F)CC3)c3ccccc32)cn1 [Example 557, N-((1r,4r)-4-((3-(6-(methylcarbamoyl)pyridin-3-yl)-2-oxo-2,3-dihydro-1H-benzo[d]imidazol-1-yl)methyl)cyclohexyl)-2-(2,2,2-trifluoroethyl)-2H-indazole-3-carboxamide]
7 | < 300 | CCn1ncc2cc(-n3c(=O)n(C[C@H]4CC[C@H](NC(=O)c5cc(Cl)cnc5C)CC4)c4ccccc43)cnc21 [Example 250, 5-chloro-N-((1r,4r)-4-((3-(1-ethyl-1H-pyrazolo[3,4-b]pyridin-5-yl)-2-oxo-2,3-dihydro-1H-benzo[d]imidazol-1-yl)methyl)cyclo-hexyl)-2-methylnicotinamide]
8 | < 300 | Cc1c[nH]c2ncc(-n3c(=O)n(C[C@H]4CC[C@H](NC(=O)c5cc(Cl)cnc5C(F)F)CC4)c4cccnc43)cc12 [Example 474, 5-chloro-2-(difluoromethyl)-N-((1r,4r)-4-((3-(3-methyl-1H-pyrrolo[2,3-b]pyridin-5-yl)-2-oxo-2,3-dihydro-1H-imidazo[4,5-b]pyridin-1-yl)methyl)cyclohexyl)nicotinamide]
9 | < 300 | Cc1ncc(Cl)cc1C(=O)N[C@H]1CC[C@H](Cn2c(=O)n(-c3ccc(-n4ccnc4)cc3)c3ccccc32)CC1 [Example 468, N-((1r,4r)-4-((3-(4-(1H-imidazol-1-yl)phenyl)-2-oxo-2,3-dihydro-1H-benzo[d]imidazol-1-yl)methyl)cyclo-hexyl)-5-chloro-2-methyl-nicotinamide]
10 | < 300 | CNc1cc(-n2c(=O)n(C[C@H]3CC[C@H](NC(=O)c4cc(Cl)cnc4C(F)F)CC3)c3ccccc32)ccn1 [Example 661, 5-chloro-2-(difluoromethyl)-N-((1r,4r)-4-((3-(2-(methylamino)pyridin-4-yl)-2-oxo-2,3-dihydro-1H-benzo[d]imidazol-1-yl)methyl)cyclohexyl)nicotinamide]
11 | < 300 | O=C(N[C@H]1CC[C@H](Cn2c(=O)n(-c3ccc4ncccc4c3)c3cccnc32)CC1)c1cc(Cl)cnc1C(F)F [Example 361, 5-chloro-2-(difluoromethyl)-N-((1r,4r)-4-((2-oxo-1-(quinolin-6-yl)-1H-imidazo[4,5-b]pyridin-3(2H)-yl)methyl)cyclohexyl) nicotinamide]
12 | < 300 | CCOc1ccc(-n2c(=O)n(C[C@H]3CC[C@H](NC(=O)c4cc(Cl)cnc4C)CC3)c3ccccc32)cn1 [Example 36, 5-chloro-N-((1r,4r)-4-((3-(6-ethoxypyridin-3-yl)-2-oxo-2,3-dihydro-1H-benzo[d]imidazol-1-yl)methyl)cyclohexyl)-2-methylnicotinamide]
13 | < 300 | CN(C)c1cccc(-n2c(=O)n(C[C@H]3CC[C@H](NC(=O)c4cc(Cl)cnc4C(F)F)CC3)c3ccccc32)n1 [Example 659, 5-chloro-2-(difluoromethyl)-N-((1r,4r)-4-((3-(6-(dimethyl-amino)pyridin-2-yl)-2-oxo-2,3-dihydro-1H-benzo[d]imidazol-1-yl)methyl)cyclo-hexyl)nicotinamide]
14 | < 300 | O=C(N[C@H]1CC[C@H](Cn2c(=O)n(-c3ccc4cccnc4c3)c3ccccc32)CC1)c1cc(Cl)cnc1C(F)F [Example 422, 5-chloro-2-(difluoromethyl)-N-((1r,4r)-4-((2-oxo-3-(quinolin-7-yl)-2,3-dihydro-1H-benzo[d]imidazol-1-yl)methyl)cyclo-hexyl)nicotinamide]
15 | < 300 | Cn1cc(-c2cccc(-n3c(=O)n(C[C@H]4CC[C@H](NC(=O)c5cc(Cl)cnc5C(F)F)CC4)c4ccccc43)c2)cn1 [Example 681, 5-chloro-2-(difluoromethyl)-N-((1r,4r)-4-((3-(3-(1-methyl-1H-pyrazol-4-yl)phenyl)-2-oxo-2,3-dihydro-1H-benzo [d]imidazol-1-yl)methyl)cyclo-hexyl)nicotinamide]
16 | < 300 | N#Cc1ncccc1-n1c(=O)n(C[C@H]2CC[C@H](NC(=O)c3cc(Cl)cnc3C(F)F)CC2)c2ccccc21 [Example 368, 5-chloro-N-((1r,4r)-4-((3-(2-cyanopyridin-3-yl)-2-oxo-2,3-dihydro-1H-benzo[d]imidazol-1-yl)methyl)cyclo-hexyl)-2-(difluoromethyl) nicotinamide]
17 | < 300 | O=C(N[C@H]1CC[C@H](Cn2c(=O)n(-c3cccc4nccn34)c3ccccc32)CC1)c1cc(Cl)cnc1C(F)F [Example 420, 5-chloro-2-(difluoromethyl)-N-((1r,4r)-4-((3-(imidazo[1,2-a]pyridin-5-yl)-2-oxo-2,3-dihydro-1H-benzo[d]imidazol-1-yl)methyl)cyclohexyl)nicotinamide]
18 | < 300 | O=C(N[C@H]1CC[C@H](Cn2c(=O)n(-c3cncc4ccccc34)c3ccccc32)CC1)c1cc(Cl)cnc1C(F)(F)F [Example 354, 5-chloro-N-((1r,4r)-4-((3-(isoquinolin-4-yl)-2-oxo-2,3-dihydro-1H-benzo[d]imidazol-1-yl)methyl)cyclo-hexyl)-2-(trifluoromethyl) nicotinamide]
19 | < 300 | O=C(N[C@H]1CC[C@H](Cn2c(=O)n(-c3ccc(N4CCOCC4=O)nc3)c3ccccc32)CC1)c1cc(Cl)cnc1C(F)F [Example 505, 5-chloro-2-(difluoromethyl)-N-((1r,4r)-4-((2-oxo-3-(6-(3-oxomorpholino)pyridin-3-yl)-2,3-dihydro-1H-benzo[d]imidazol-1-yl)methyl)cyclo-hexyl)nicotinamide]
20 | < 300 | CC(=O)N1CCc2cc(-n3c(=O)n(C[C@H]4CC[C@H](NC(=O)c5cc(Cl)cnc5C)CC4)c4ccccc43)cnc21 [Example 155, N-((1r,4r)-4-((3-(1-acetyl-2,3-dihydro-1H-pyrrolo[2,3-b]pyridin-5-yl)-2-oxo-2,3-dihydro-1H-benzo[d]imidazol-1-yl)methyl)cyclohexyl)-5-chloro-2-methylnicotinamide]
21 | < 300 | Cc1ncc(Cl)cc1C(=O)N[C@H]1CC[C@H](Cn2c(=O)n(-c3ccc(-c4cccnc4)nc3)c3ccccc32)CC1 [Example 201, N-((1r,4r)-4-((3-([2,3′-bipyridin]-5-yl)-2-oxo-2,3-dihydro-1H-benzo[d]imidazol-1-yl)methyl)cyclohexyl)-5-chloro-2-methylnicotinamide]
22 | < 300 | Cc1nccc(-n2c(=O)n(C[C@H]3CC[C@H](NC(=O)c4cc(Cl)cnc4C(F)F)CC3)c3ccccc32)c1C [Example 364, 5-chloro-2-(difluoromethyl)-N-((1r,4r)-4-((3-(2,3-dimethyl-pyridin-4-yl)-2-oxo-2,3-dihydro-1H-benzo[d]imidazol-1-yl)methyl)cyclohexyl)nicotinamide]
23 | < 300 | CCn1nc2ccccc2c1C(=O)N[C@H]1CC[C@H](Cn2c(=O)n(-c3ccc(OC)nc3)c3ccccc32)CC1 [Example 39, 2-ethyl-N-((1r,4r)-4-((3-(6-methoxypyridin-3-yl)-2-oxo-2,3-dihydro-1H-benzo[d]imidazol-1-yl)methyl)cyclohexyl)-2H-indazole-3-carboxamide]
24 | < 300 | Cc1ncc(Cl)cc1C(=O)N[C@H]1CC[C@H](Cn2c(=O)n(-c3ccnc(C)c3C)c3ccccc32)CC1 [Example 331, 5-chloro-N-((1r,4r)-4-((3-(2,3-dimethylpyridin-4-yl)-2-oxo-2,3-dihydro-1H-benzo [d]imidazol-1-yl)methyl)cyclohexyl)-2-methylnico-tinamide]
